Broadly, the GI50 is the concentration at which growth is held to half of that of the control. The remaining activity is the activity still measured, relative to the control.

The target in one assay is CDK1B (Homo sapiens, UniProt P06493). As to the kind of experiment: Kinase assay CDK1B (radiometric profiling service). The format is biochemical. The settings on record: for Ki: apparent Ki calculated from Km (ATP) and IC50, read-out: CDK inhibition Ki CDK1B. A digest of the protocol: (§1)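 Luminescent ADP-Glo read-out for CDK4/D1 (radiometric alternative); CDK7/2/1 radiometric via profiler. CDK4/D1: RB-CTF, Tris pH 7.5, MgCl2, DTT, BSA, ATP start, 40 min 37° C. 10-pt 1:3 series, 10 μM–0.5 nM. 4-PL IC50; Ki calc. from Km(ATP).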

The target in the next assay is T1, CDK9T1 (Homo sapiens, UniProt P50750).
T1 construct: purchased Eurofins Pharma Discovery or Reaction Biology Corporation (service)
As to the kind of experiment: Kinase assay CDK9/T1 (radiometric or ADP Glo). Type of assay: biochemical. To be noted: for Ki: apparent Ki calculated from Km (ATP) and IC50, read-out: CDK inhibition Ki CDK9T1. An outline of the steps: (§2)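 Radiometric inhibition data for CDKs came from Eurofins or Reaction Biology profiling services; CDK4/D1 was also run in-house by ADP-Glo in […] pH 7.5, 20 mM MgCl2, 0.4 mM DTT, 0.1 mg/ml BSA with RB-CTF substrate, 40 min at 37 °C after ATP start. Ten-point 1:3 dilutions (10 μM–0.5 nM); four-parameter IC50, Ki from IC50 and ATP Km.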

Another assay concerns the target T2, CDK6D3 (Homo sapiens, UniProt Q00534).
T2 construct: purchased Eurofins Pharma Discovery or Reaction Biology Corporation (service)
In words: Kinase assay CDK6/D3 (radiometric or ADP Glo). Type of assay: biochemical. To be noted: apparent Ki calculated from Km (ATP) and IC50; read-out: CDK inhibition Ki CDK6D3. A digest of the protocol: as §2

The subject of another assay is MV4-11. As to the kind of experiment: Cell viability assay (resazurin, leukemia cell line) MV4-11. The format is cell-based, human. To be noted: Homo sapiens, MV4-11, 72 h; read-out: Anti-proliferative activity GI50 MV4-11. The source says: (§3) Compounds from Example 1 were subjected to a standard MTT (3-(4,5-dimethylthiazol-2-yl)-2,5-diphenyltetrazolium bromide) and resazurin assays on solid tumour cell lines and leukemia cell lines, respectively, as previously reported (Wang S et al., J Med Chem 47:1662-1675, 2004 and Diab S. et al. CheMedChem 9:962-972, 2014).
On the technique in general: Resazurin is reduced to fluorescent resorufin, in cell work by metabolically active cells.

A further assay deals with T3, CDK4D1 (Homo sapiens, UniProt P11802).
T3 construct: purchased Eurofins Pharma Discovery or Reaction Biology Corporation (service)
As to the kind of experiment: Kinase assay CDK4/D1 (radiometric or ADP Glo). The format is biochemical. To be noted: apparent Ki calculated from Km (ATP) and IC50; read-out: CDK inhibition Ki CDK4D1. A digest of the protocol:
as §1

Another assay has as its target CDK7H (Homo sapiens, UniProt P50613). In words: Kinase assay CDK7H (radiometric profiling service). The format is biochemical. To be noted: for Ki: apparent Ki calculated from Km (ATP) and IC50, read-out: CDK inhibition Ki CDK7H; for remaining activity at 10 µM: compound at 10 μM, read-out: % remaining enzymatic activity at 10 μM CDK7H. As to the method: Eurofins Pharma Discovery or Reaction Biology Corporation Kinase Profiler services were used to measure inhibition of CDKs and other kinases by radiometric assay. Inhibition of CDK4/D1, CDK6/D3 and CDK9/T1 were also determined in-house using ADP Glo Kinase assays (Promega Corporation, Madison, USA). Briefly, the kinase reaction for CDK4/D1 and CDK6/D3 was performed with kinase reaction buffer ([…] Tris base pH 7.5, 20 mM MgCl2, 0.4 mM DTT), 0.1 mg/ml BSA and RB-CTF substrate (retinoblastoma protein1 C-terminal fraction). For CDK9/CyclinT1, the kinase reaction was performed with standard assay buffer and Kinase Dilution Buffer and RBER-IRStide substrate. Serial dilutions of 1:3 were prepared for test compounds for 10 concentrations (from 10 μM to 0.5 nM). The kinase reactions were started by addition of ATP, incubated for 40 min at 37° C. and then stopped by adding 10 μL of ADP Glo reagent. After incubation at room temperature in the dark for 40 min, 20 μL of kinase detection reagent was added per well and incubated for 40 min. Luminescence was measured using an EnVision Multilabel plate reader (PerkinElmer, Buckinghamshire, UK). Positive and negative controls were perfonned in the presence and absence of CDK kinases, respectively. Half-maximal inhibition (IC50) values were calculated using a 4-parameter logistic non-linear regression model with Graphpad prism (Version 6.0). Apparent inhibition constants (Ki) values were calculated from Km (ATP) and IC50 values for the respective kinases.

A further assay addresses CDK 2A (Homo sapiens, UniProt P24941). As to the kind of experiment: Kinase assay CDK2A (radiometric profiling service). The settings on record: for Ki: apparent Ki calculated from Km (ATP) and IC50, read-out: CDK inhibition Ki CDK 2A. The format is biochemical. A digest of the protocol: as §1
Another assay deals with MDA-MB-453. In words: Cell viability assay (MTT, solid tumour cell line) MDA-MB-453. The format is cell-based, human. The settings on record: Homo sapiens, MDA-MB-453, 72 h; read-out: Anti-proliferative activity GI50 MDA-MB-453.
Excerpt: as §3

CDK7H, sequence (P50613 whole entry): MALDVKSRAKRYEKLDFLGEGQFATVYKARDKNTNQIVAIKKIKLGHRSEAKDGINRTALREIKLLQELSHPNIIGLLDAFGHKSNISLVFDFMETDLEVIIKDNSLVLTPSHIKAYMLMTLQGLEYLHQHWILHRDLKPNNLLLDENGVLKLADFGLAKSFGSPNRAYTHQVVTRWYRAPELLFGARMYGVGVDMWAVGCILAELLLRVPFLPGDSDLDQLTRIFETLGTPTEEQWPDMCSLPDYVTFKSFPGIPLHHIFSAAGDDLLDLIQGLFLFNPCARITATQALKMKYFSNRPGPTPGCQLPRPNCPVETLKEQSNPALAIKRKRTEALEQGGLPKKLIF
CDK7H, sequence (P51946 whole entry partner): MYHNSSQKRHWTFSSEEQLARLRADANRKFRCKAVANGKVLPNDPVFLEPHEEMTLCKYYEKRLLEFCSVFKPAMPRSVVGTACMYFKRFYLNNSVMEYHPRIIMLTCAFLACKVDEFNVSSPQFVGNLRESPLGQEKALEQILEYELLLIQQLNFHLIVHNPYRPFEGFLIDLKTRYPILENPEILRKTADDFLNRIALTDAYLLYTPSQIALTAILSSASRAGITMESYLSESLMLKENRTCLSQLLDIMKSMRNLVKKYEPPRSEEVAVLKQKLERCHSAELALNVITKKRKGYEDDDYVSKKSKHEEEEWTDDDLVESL
CDK7H, sequence (P51948 whole entry partner): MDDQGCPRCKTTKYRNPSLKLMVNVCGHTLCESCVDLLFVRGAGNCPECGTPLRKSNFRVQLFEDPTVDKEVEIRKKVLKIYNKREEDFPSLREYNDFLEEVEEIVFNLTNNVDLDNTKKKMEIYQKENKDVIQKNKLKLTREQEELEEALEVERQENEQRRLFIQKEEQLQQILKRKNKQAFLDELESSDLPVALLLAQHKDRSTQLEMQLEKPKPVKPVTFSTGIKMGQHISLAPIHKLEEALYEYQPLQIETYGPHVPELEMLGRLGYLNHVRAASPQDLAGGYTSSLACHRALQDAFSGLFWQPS
T3 sequence (P11802 whole entry): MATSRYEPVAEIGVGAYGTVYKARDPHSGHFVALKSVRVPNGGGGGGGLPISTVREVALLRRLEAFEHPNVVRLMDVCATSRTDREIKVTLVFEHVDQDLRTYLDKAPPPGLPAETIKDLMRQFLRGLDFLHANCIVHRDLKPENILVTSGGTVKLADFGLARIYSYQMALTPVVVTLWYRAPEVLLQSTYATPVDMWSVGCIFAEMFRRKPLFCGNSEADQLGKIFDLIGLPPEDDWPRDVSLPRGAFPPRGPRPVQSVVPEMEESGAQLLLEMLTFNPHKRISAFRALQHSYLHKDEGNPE
T3 sequence (P24385 whole entry partner): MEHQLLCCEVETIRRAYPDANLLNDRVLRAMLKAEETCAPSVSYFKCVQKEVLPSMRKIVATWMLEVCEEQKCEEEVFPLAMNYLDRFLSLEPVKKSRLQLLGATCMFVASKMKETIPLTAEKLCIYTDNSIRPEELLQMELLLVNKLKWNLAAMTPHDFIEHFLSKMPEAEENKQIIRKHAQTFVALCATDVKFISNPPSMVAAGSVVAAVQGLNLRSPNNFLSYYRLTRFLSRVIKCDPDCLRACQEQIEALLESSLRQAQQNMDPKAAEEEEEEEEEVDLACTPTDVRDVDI
T1 sequence (P50750 whole entry): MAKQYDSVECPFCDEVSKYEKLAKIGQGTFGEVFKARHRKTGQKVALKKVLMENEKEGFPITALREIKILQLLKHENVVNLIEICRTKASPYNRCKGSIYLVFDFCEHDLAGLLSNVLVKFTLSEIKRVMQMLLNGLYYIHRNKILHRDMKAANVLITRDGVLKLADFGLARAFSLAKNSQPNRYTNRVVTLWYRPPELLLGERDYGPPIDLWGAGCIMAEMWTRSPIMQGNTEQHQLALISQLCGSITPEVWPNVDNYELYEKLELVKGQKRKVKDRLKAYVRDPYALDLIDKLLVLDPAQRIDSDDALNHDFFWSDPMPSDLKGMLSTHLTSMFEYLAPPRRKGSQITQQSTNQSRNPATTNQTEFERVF
T1 sequence (O60563 whole entry partner): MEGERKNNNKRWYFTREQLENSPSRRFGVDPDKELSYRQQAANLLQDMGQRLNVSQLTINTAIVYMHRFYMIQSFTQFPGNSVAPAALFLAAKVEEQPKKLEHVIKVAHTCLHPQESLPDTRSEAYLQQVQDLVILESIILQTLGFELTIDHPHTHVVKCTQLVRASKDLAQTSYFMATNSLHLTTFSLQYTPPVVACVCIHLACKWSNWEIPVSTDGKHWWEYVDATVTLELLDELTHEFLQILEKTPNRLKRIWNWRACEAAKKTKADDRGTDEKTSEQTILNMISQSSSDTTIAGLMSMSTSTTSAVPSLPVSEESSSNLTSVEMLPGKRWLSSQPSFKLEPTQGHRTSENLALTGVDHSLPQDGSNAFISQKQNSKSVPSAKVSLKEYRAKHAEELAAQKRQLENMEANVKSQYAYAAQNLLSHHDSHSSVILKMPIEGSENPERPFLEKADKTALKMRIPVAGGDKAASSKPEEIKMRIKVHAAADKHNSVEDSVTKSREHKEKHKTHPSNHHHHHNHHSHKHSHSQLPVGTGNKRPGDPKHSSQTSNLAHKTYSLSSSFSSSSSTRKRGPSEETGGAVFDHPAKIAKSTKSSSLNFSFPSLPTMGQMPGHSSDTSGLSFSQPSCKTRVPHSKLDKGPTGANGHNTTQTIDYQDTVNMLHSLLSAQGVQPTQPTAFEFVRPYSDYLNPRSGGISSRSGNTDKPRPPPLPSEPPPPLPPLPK
CDK1B, sequence (P06493 whole entry): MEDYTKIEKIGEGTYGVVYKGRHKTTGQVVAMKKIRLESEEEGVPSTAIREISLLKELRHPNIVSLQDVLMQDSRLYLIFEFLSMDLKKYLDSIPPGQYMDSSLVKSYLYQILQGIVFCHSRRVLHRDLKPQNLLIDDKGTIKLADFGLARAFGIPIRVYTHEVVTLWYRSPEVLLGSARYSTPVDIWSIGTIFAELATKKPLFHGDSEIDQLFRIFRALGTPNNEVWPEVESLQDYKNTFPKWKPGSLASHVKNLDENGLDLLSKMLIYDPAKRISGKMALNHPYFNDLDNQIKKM
CDK1B, sequence (P14635 whole entry partner): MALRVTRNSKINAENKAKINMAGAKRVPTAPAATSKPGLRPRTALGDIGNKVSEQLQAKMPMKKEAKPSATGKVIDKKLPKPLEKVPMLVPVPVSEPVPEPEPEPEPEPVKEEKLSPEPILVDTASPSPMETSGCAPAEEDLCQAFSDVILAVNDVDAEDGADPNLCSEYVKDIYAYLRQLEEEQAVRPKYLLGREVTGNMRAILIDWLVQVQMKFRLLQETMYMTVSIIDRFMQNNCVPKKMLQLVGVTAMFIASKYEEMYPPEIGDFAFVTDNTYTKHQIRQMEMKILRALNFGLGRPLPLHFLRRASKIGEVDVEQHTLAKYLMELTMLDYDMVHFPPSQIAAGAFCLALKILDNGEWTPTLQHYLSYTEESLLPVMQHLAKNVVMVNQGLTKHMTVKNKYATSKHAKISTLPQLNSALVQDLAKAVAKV
T2 sequence (Q00534 whole entry): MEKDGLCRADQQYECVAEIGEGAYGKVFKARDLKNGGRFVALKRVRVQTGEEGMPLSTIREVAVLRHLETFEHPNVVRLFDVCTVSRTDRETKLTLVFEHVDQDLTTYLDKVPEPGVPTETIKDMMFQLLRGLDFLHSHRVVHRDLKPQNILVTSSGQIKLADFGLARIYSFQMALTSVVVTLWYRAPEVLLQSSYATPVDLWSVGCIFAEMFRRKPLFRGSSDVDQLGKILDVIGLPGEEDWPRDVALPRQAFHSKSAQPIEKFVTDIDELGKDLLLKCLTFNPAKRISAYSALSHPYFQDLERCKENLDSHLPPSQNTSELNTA
T2 sequence (P30281 whole entry partner): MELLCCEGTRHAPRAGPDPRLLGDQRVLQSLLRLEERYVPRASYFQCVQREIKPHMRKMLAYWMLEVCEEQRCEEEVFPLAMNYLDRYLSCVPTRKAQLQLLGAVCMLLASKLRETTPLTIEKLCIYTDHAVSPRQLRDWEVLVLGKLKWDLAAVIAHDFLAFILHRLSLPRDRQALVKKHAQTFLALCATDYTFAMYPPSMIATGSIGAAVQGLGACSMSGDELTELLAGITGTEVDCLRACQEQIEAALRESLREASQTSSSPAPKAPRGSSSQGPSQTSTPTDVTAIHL

For `Cc1nc(C)c(-c2ccnc(Nc3ccc(N4CCNCC4)cn3)n2)s1` [Compound 2, 4-(2,4-dimethylthiazol-5-yl)-N-(5-(piperazin-1-yl)pyridin-2-yl)pyrimidin-2-amine], the Ki at CDK1B is over 5000 nM; at CDK9T1, over 5000 nM; on CDK6D3, 245 nM; at CDK4D1, 55 nM; on CDK7H, over 5000 nM; at CDK 2A it was over 5000 nM. Moreover, the GI50 with MV4-11 is 1021 ± 7 nM; with MDA-MB-453 it was over 10000 nM.
Take `Cc1nc(SC(C)C)sc1-c1ccnc(Nc2ccc(N3CCN(C)CC3)cn2)n1` [Compound 24, 4-(2-(isopropylthio)-4-methylthiazol-5-yl)-N-(5-(4-methylpiperazin-1-yl)pyridin-2-yl)pyrimidin-2-amine]: the Ki on CDK1B was 3990 nM; at CDK9T1, 4610 nM; at CDK6D3, 15 nM; at CDK4D1 it was 1 nM; on CDK7H, over 5000 nM; on CDK 2A, 180 nM. The GI50 was determined as 66 ± 19 nM with MV4-11 and 4880 ± 214 nM with MDA-MB-453.
As for `CCc1nc(C)c(-c2ccnc(Nc3ccc(N4CCNCC4)cn3)n2)s1` [Compound 7, 4-(2-ethyl-4-methylthiazol-5-yl)-N-(5-(piperazin-1-yl)pyridin-2-yl)pyrimidin-2-amine], the Ki is over 5000 nM at CDK1B; over 5000 nM at CDK9T1; 237 nM at CDK6D3; 59 nM on CDK4D1; over 5000 nM on CDK7H; 1710 nM on CDK 2A. The figures for the GI50 in the assay on MV4-11 and in the assay on MDA-MB-453 were 606 ± 150 nM and 3860 ± 220 nM, respectively.
Consider `CNc1nc(C)c(-c2nc(Nc3ccc(N4CCNCC4)cn3)ncc2F)s1` [Compound 28, 5-(5-fluoro-2-((5-(piperazin-1-yl)pyridin-2-yl)amino)pyrimidin-4-yl)-N,4-dimethylthiazol-2-amine], for which the Ki at CDK1B was 1360 nM; at CDK9T1 it was 784 nM; at CDK6D3, 32 nM; on CDK4D1, 4 nM; on CDK7H, over 5000 nM; at CDK 2A, 236 nM. Moreover, the GI50 with MV4-11 turned out to be 12 ± 3 nM; with MDA-MB-453 it was 248 ± 44 nM.
`CSc1nc(C)c(-c2ccnc(Nc3ccc(N4CCN(C(C)=O)CC4)cn3)n2)s1` [Compound 22, 1-(4-(6-((4-(4-methyl-2-(methylthio)thiazol-5-yl)pyrimidin-2-yl)amino)pyridin-3-yl)piperazin-1-yl)ethan-1-one]: the Ki was over 5000 nM at CDK1B, 1950 nM at CDK6D3, 190 nM at CDK4D1 and 4760 nM at CDK 2A. For the same compound, the remaining activity at 10 µM on CDK9T1 (compound at 10 μM, read-out: % remaining enzymatic activity at 10 μM CDK9T1) came out at 80%; at CDK7H, 86%. The figures for the GI50 with MV4-11 and in the assay on MDA-MB-453 were 2510 ± 432 nM and over 10000 nM, respectively.
For `Cc1c(-c2ccnc(Nc3ccc(N4CCN(C)CC4)cn3)n2)sc(=O)n1C` [Compound 93, 3,4-dimethyl-5-(2-((5-(4-methylpiperazin-1-yl)pyridin-2-yl)amino)pyrimidin-4-yl)thiazol-2(3H)-one], the remaining activity at 10 µM on CDK1B (compound at 10 μM, read-out: % remaining enzymatic activity at 10 μM CDK1B) came out at 71%; on CDK7H, 52%; at CDK 2A (compound at 10 μM, read-out: % remaining enzymatic activity at 10 μM CDK 2A), 77%. Moreover, the Ki was 840 nM at CDK9T1, 915 nM at CDK6D3 and 255 nM on CDK4D1. In addition, the GI50 with MV4-11 was 3720 ± 357 nM; in the assay on MDA-MB-453, over 10000 nM.
`Cc1nc(N(C)C)sc1-c1ccnc(Nc2ccc(N3CCNCC3)cn2)n1` [Compound 43, N,N,4-trimethyl-5-(2-((5-(piperazin-1-yl)pyridin-2-yl)amino)pyrimidin-4-yl)thiazol-2-amine]: the Ki on CDK1B is over 5000 nM; on CDK9T1 it was over 5000 nM; at CDK6D3, 56 nM; at CDK4D1, 21 nM; at CDK7H it was over 5000 nM; on CDK 2A, 903 nM. For the same compound, the GI50 with MV4-11 is 11 ± 21 nM; with MDA-MB-453, 894 ± 91 nM.
With `Cc1nc(C)c(-c2ccnc(Nc3ccc(N4CCN(C)CC4)cn3)n2)s1` [Compound 3, 4-(2,4-dimethylthiazol-5-yl)-N-(5-(4-methylpiperazin-1-yl)pyridin-2-yl)pyrimidin-2-amine], the Ki at CDK1B is over 5000 nM; at CDK9T1, over 5000 nM; on CDK6D3 it was 170 nM; at CDK4D1 it was 30 nM; on CDK7H it was over 5000 nM; at CDK 2A it was 1930 nM. The GI50 in the assay on MV4-11 came out at 53 ± 3 nM; with MDA-MB-453, 378 ± 29 nM.
For `CNc1nc(C)c(-c2nc(Nc3ccc(N4CCCNCC4)cn3)ncc2F)s1` [Compound 53, 5-(2-((5-(1,4-diazepan-1-yl)pyridin-2-yl)amino)-5-fluoropyrimidin-4-yl)-N,4-dimethylthiazol-2-amine], the Ki on CDK1B is 2370 nM; on CDK9T1 it was 3040 nM; at CDK6D3, 32 nM; on CDK4D1 it was 3 nM; at CDK7H, over 5000 nM; on CDK 2A, 206 nM. For the same compound, the figures for the GI50 in the assay with MV4-11 and in the assay on MDA-MB-453 were 80 ± 13 nM and 362 ± 3 nM, respectively.
On to `CCN1CCN(c2ccc(Nc3nccc(-c4sc(C(C)C)nc4C)n3)nc2)CC1` [Compound 15, N-(5-(4-ethylpiperazin-1-yl)pyridin-2-yl)-4-(2-isopropyl-4-methylthiazol-5-yl)pyrimidin-2-amine], for which the Ki at CDK1B was 3100 nM; on CDK9T1, over 5000 nM; at CDK6D3, 25 nM; on CDK4D1, 5 nM; on CDK7H it was over 5000 nM; at CDK 2A, 465 nM. Further, the results for the GI50 in the assay with MV4-11 and in the assay on MDA-MB-453 were 63 ± 26 nM and 542 ± 65 nM, respectively.
In the case of `CC(=O)N1CCN(c2ccc(Nc3nccc(-c4sc(N(C)C)nc4C)n3)nc2)CC1` [Compound 48, 1-(4-(6-((4-(2-(dimethylamino)-4-methylthiazol-5-yl)pyrimidin-2-yl)amino)pyridin-3-yl)piperazin-1-yl)ethan-1-one], the Ki on CDK1B was over 5000 nM; on CDK9T1, over 5000 nM; on CDK6D3 it was 234 nM; at CDK4D1 it was 87 nM; at CDK7H, over 5000 nM; on CDK 2A it was 976 nM. The GI50 in the assay on MV4-11 is 537 ± 133 nM; with MDA-MB-453, 4720 ± 715 nM.
Turning to `Cc1nc(N(C)C)sc1-c1ccnc(Nc2ccc(N3CCN(C)CC3)cn2)n1` [Compound 45, N,N,4-trimethyl-5-(2-((5-(4-methylpiperazin-1-yl)pyridin-2-yl)amino)pyrimidin-4-yl)thiazol-2-amine], the Ki on CDK1B is over 5000 nM; at CDK9T1, over 5000 nM; at CDK6D3, 154 nM; at CDK4D1, 30 nM; at CDK7H it was over 5000 nM; at CDK 2A, 1430 nM. Further, the GI50 in the assay with MV4-11 turned out to be 92 ± 4 nM; with MDA-MB-453 it was 2100 ± 787 nM.
Take `Cc1nc(C(C)C)sc1-c1ccnc(Nc2ccc(N3CCN(C)CC3)cn2)n1` [Compound 14, 4-(2-isopropyl-4-methylthiazol-5-yl)-N-(5-(4-methylpiperazin-1-yl)pyridin-2-yl)pyrimidin-2-amine]: the Ki was 3410 nM at CDK1B; 4180 nM on CDK9T1; 29 nM on CDK6D3; 10 nM at CDK4D1; over 5000 nM at CDK7H; 287 nM on CDK 2A. Besides, the results for the GI50 with MV4-11 and in the assay with MDA-MB-453 were 596 ± 231 nM and over 10000 nM, respectively.

The values above are taken from patent USRE49850E1, “N-(pyridin-2-yl)-4-(thiazol-5-yl)pyrimidin-2-amine derivatives as therapeutic compounds” (AUCENTRA THERAPEUTICS PTY LTD, priority 2015, dated 2024).
